Laboratory results: patent publication US20260000763A1, “Methods of Manufacturing Therapeutic Cells” (The Board of Trustees of the Leland Stanford Junior …, priority 2022, published 2026)
“Also recorded” adds a separate entry of the source.

How the values were obtained:
[1] = tested on: CAR T cells; assay: Seahorse analysis, ATP5 expression and ATP levels of CAR T cells manufactured in inosine; assay type: cell-based
Description: A and B: Seahorse analysis of CAR T cells at day 11 post-activation. Representative graphs of n=1-2 donors are shown. P values were determined by unpaired two-tailed t-tests. C: Flow analysis of ATP5 expression by CD8+ CAR T cells at day 17 post-activation. Representative histograms of two donors are shown. D: ATP levels in CAR T cells at day 14 post activation. Results from two independent experiments are shown (n=2).
Studied next was the effect of inosine on CAR T cell metabolism. […] Furthermore, the total amount of ATP generated by CAR T cells grown in the presence of inosine was increased (FIG. 4D).

[2] = tested on: GD2 CAR T cells; assay: Large-scale manufacturing of GD2.bbz CAR T cells in G-Rex system in regular or inosine media; assay type: cell-based
Description: Enriched CD4/CD8+ T cells from a healthy donor were cultured in regular or inosine-containing media in the G-Rex system. Cells were analyzed at days 7 post-activation. A: Scheme of the large scale experiment. B: Expansion of GD2 CAR T cells manufactured in control vs inosine-containing media. N=1 out of two donors is shown. C: Number of CAR+ T cells at the day 7 post activation. D: Viability of T cells. E: Percentage of CAR+ and CD4 vs CD8 T cells. Data from one representative donor is shown. N=2. F: Relative frequency of terminally differentiated effector (EMRA; CD45RA+ CCR7-), naïve (CD45RA+ CCR7+), central memory (CM; CD45RA-CCR7+), and effector memory (EM; CD45RA-CCR7-) cells in CD8+ control or inosine-grown GD2 CAR T cells. G: IL-2 and IFNγ secretion by CAR T cells stimulated with 143b, mg63.3 or Nalm6-GD2 tumor lines. […] P values were determined by unpaired two-tailed t-tests.
FIG. 13A-13H: Clinical scale manufacturing of clinical grade GD2-CAR T cells using media containing inosine, improves CAR product quality. A: Schematic of large-scale manufacturing of GD2.bbz-CAR+ T cells in a semi-closed G-Rex system in glucose-or inosine-containing media. 7 days post-activation, transduction efficiency, percentage of viable cells, and CD4/CD8 ratio of GD2+ cells were assessed by flow cytometry. […] B: Expansion of total viable T cells manufactured in control (black) vs. inosine (green)-containing media and (Right) corresponding number of CAR+ cells at day 7. […] C: IL-2 and IFNg secretion by CAR T cells stimulated for 24 hrs with 143b, mg63.3 or Nalm6-GD2 tumor lines. […] D: NSG mice were injected with 1×10^6 Nalm6 leukemia cells. On day 3 post-tumor injection, 2×10^6 of mock or GD2.bbz-CAR T cells manufactured in the presence of inosine or in regular media were transferred intravenously. Tumor growth was monitored by bioluminescent imaging. […] P values determined at day 43 by using Mann-Whitney test. […] E: Concentration of CD45+ T cells detected in blood of mice at D33 post-CAR T cell injection. […] F: Schematic of the experimental design. G: GD2.bbz-CAR T cells grown in media containing indicated inosine concentration between day 3 and day 10 post-activation and stimulated with 143b tumor. IL-2 and IFNg secretion after 24 hrs of co-culture was measured. Data are mean±s.d. of duplicate or triplicate wells. Representative of n=3 donors shown. […] Reprograming is due to an increase in glutaminolysis and polyamine synthesis and downregulation of CD73, FOXP3, A2aR and c-AMP response transcription factors.
In this example, the in vivo anti-tumor potency of CAR T cells manufactured in the presence or absence of inosine was assessed. In this particular example, the feasibility of manufacturing GD2 CAR T cells in inosine media in the clinical setting was assessed. 2.5×10^8 enriched CD4+ and CD8+ T cells from a healthy donor were activated with anti-CD3/CD28-coated beads and transduced using clinical grade GD2.bbz vector at MOI=10 (FIG. 6A). From day 3, T cells were continued to be cultured in regular-or inosine containing media in a semi-closed culture system using G-Rex platform. […] There was no difference in product viability (FIG. 6D), nor transduction efficiency nor CD4 vs CD8 ratio (FIG. 6E).
A total of 2.5×10^8 enriched CD4+ and CD8+ T cells from a healthy donor were activated with anti-CD3/CD28-coated beads and transduced using clinical grade GD2-CAR vector at an MOI of 10 (FIG. 13A). On day 3, T cells were maintained in standard RPMI media containing glucose or switched to inosine-containing RPMI without glucose in a semi-closed G-Rex culture platform.

[3] = tested on: HA-CAR T cells; assay: Expansion of HA-CAR T cells in media with glucose and/or inosine; inosine dose response; assay type: cell-based, human
[4] = tested on: HA-CAR T cells; assay: Improvement index overlapped with proliferation to set a therapeutic window for inosine; assay type: cell-based, human; details: 11 mM glucose plus 0.5-11 mM inosine tested; improvement index vs proliferation
Description: FIG. 7F: Improvement index calculation scheme.
FIG. 7G: Scatter plot showing correlation between improvement index (y-axis-in black) or proliferation (y-axis-in red) and inosine concentration (x-axis). […] N=2-6 donors from independent experiments.
To establish a therapeutic window for inosine addition, an improvement index was calculated. The index represents a sum of fold change in frequency of CCR7+CD8+ and CD62L+CD8+ at the base line and fold change in IL-2 and IFNγ secretion after 24 hours stimulation with Nalm6-GD2 tumor line by HA-CAR T cells manufactured in 11 mM of glucose and various concentrations of inosine (0.5-11 mM) as compared to control (FIG. 7F).

[5] = tested on: CD8+ HA-CAR T cells; assay: ATACseq chromatin accessibility of CD8+ HA- and HA-INO-CAR T cells (ChromVAR, HOMER); assay type: cell-based, human
Source text: Concatenated samples from n=3 donors. […] (Left) Dot plots of representative donor shown.

[6] = tested on: HA-CAR T cells
Source text: 9D: Levels of expression of indicated purinergic pathway gene transcripts from bulk RNA samples. Data are mean+/−s.e.m. from n=3 donors. P values determined by paired two-tailed t-tests. *, P<0.05; **, P<0.01; ***, P<0.001; **** P<0.0001. […] Histograms of representative donor (Left) and pooled data from n=8 donors shown (Right). P values determined by paired two-tailed t-tests. *, P<0.05; **, P<0.01; ***, P<0.001; ****, P<0.0001. 9F: UMAP plots of day 14 CD8+ (top) and CD4+ (bottom) HA-or HA-INO-CAR T cells analyzed using CyTOF. 9,000 or maximum of CD4+ CAR T cells from each condition from n=4 donors were organized by their combined expression of 5 exhaustion markers. Graphs represent median expression of indicated markers. P values determined by paired two-tailed t-tests. *, P<0.05; **, P<0.01; ***, P<0.001; ****, P<0.0001. 9G: Histograms showing GD2 antigen expressed by Nalm6-GD2 and 143b tumor lines with corresponding number of molecules per cell. 9H: Co-cultures of HA, HA-ADA-O/E-or HA grown in INO stimulated with Nalm6-GD2 (1:8 E: T) at day 14 post-activation. Tumor GFP fluorescence intensity was normalized to the first time point (duplicate or triplicate wells). Representative donor of n=2 donor shown. P values determined by two-way ANOVA with Dunnett's multiple comparisons test. *, P<0.05; **, P<0.01; ***, P<0.001; ****, P<0.0001. […] Error bars represent mean+SD of triplicate wells from one representative donor of n=1-2 donors. P values determined by unpaired two-tailed t-tests. *, P<0.05; **, P<0.01; ***, P<0.001; ****, P<0.0001. 9J: IL-2 release after 24h of CD19.4-1BBz-CAR T cells stimulated with Nalm6 tumor line alone or in co-culture with HA-or HA-INO-CAR T cells at 1:1:1 ratio. Data are mean+SD from triplicate wells. N=1 donor. *, P<0.05; **, P<0.01; *** P<0.001; ****, P<0.0001. […] Data polled from n=5 donors from independent experiments. P values determined by paired two-tailed t-tests *, P<0.05; **, P<0.01; ***, P<0.001; ****, P<0.0001. […] Tumor GFP fluorescence intensity was normalized to the first time point (duplicate or triplicate wells). Representative donor of n=3 donor shown. P values determined by two-way ANOVA with Dunnett's multiple comparisons test. *, P<0.05; **, P<0.01; ***, P<0.001; ****, P<0.0001. 9N: Co-cultures of CD19, or CD19-CAR T cells grown in INO media starting from indicated days post-activation and Nalm6-GD2 (1:10 E: T) starting at day 15 post-activation. Tumor GFP fluorescence intensity was normalized to the first time point (duplicate or triplicate wells). Representative donor of n=2 donor shown. P values determined by two-way ANOVA with Dunnett's multiple comparisons test. *, P<0.05; **, P<0.01; ***, P<0.001; ****, P<0.0001. […] Data are mean±s.e.m. of n=3-5 donors. P values determined by paired two-tailed t-tests. *, P<0.05; **, P<0.01; ***, P<0.001; ****, P<0.0001.

## O=c1[nH]cnc2c1ncn2[C@@H]1O[C@H](CO)[C@@H](O)[C@H]1O [inosine, Inosine]
[1]; CD8+ CAR T cells, day 17, flow
  ATP5 (Complex V) protein expression: increased level
[1]; Seahorse, day 11
  bioenergetic profile: shifting it towards oxidative phosphorylation
[1]; Seahorse, day 11 post-activation
  extracellular acidification rate (ECAR): significantly decreased
[1]; day 14
  total amount of ATP generated: increased
[2]; G-Rex, inosine media from day 3, day 7, one donor (FIG. 6B)
  total cells after expansion: 384.3×10^6 total cells
[2]; day 7, INO RPMI without glucose from day 3, n=2 donors, s.e.m.
  total cell yield: 238.5×10^6+145.8
[2]; day 7, inosine vs control
  CD4 vs CD8 ratio: no difference
  frequency of naive and central memory GD2 CAR T cells: higher frequency
  product viability: no difference
  transduction efficiency: no difference
[3]; 0-11 mM INO in RPMI containing 11 mM glucose, without a plateau
  dose response on diminished proliferation, increased CD62L expression and increased IFNγ production: clear dose dependent effect
[3]; day 4 to day 10, 11 mM INO in presence or absence of 11 mM glucose, listed as INO
  expansion of HA-CAR T cells: diminished expansion; also recorded: significantly reduced expansion
[4]
  inosine concentration range improving phenotype and function without complete inhibition of expansion (therapeutic window): 2.75 to 11 mM
[5]; ChromVAR and HOMER
  accessibility of RUNT, IRF and RHD family TF binding motifs: increased accessibility
[5]; D14 CD8+ cells, three individuals
  genomic regions with changed chromatin accessibility: more than 10,000 genomic regions
[5]; PCA of ATACseq
  PC1 variance: 57%
[6]; HA vs HA-INO
  expression of ornithine decarboxylase (ODC), spermidine synthase and elF5A: increased expression
  genes associated with TCR signaling: diminished expression
[6]; HA vs HA-INO, day 14
  genes associated with glutaminolysis and polyamine synthesis: increased expression
  genes associated with glycolysis and glucose driven metabolism (PFKP, ALDOA, GAPDH, PGK, ENO1): downregulation
[6]; bulk RNA-seq PCA
  variance in principal component analysis attributed to INO exposure: 41.3%
